From patent US4803197A, “2,1-benzothiazepine-2,2-dioxide-5-carboxylic acid derivatives” (Ciba-Geigy Corporation, priority 1987, dated 1989)

Experiments:
[1] = tested on: leukotriene and 5-HETE formation; assay: leukotriene and 5-HETE formation in whole blood after oral administration in rats; assay type: in vivo; conditions: 50 mg/Kg p.o.
Description: Furthermore inhibition of the formation of leukotrienes and 5-HETE is determined e.g. by measuring their concentration in whole blood after oral administration in rats.

bovine nasal cartilage [2] = assay: synovial catabolin-induced degradation of bovine nasal cartilage; assay type: cell-based; conditions: at a concentration of about 1×10^-5 M
Text: The inhibition of cartilage matrix degradation can also be similarly determined by measuring the decrease in proteoglycan release on synovial catabolin-induced degradation of bovine nasal cartilage.

bovine nasal cartilage [3] = assay: bovine nasal cartilage-synovium co-culture model of cartilage matrix degradation; assay type: cell-based; conditions: at a concentration of about 1×10^-5 M
Description: The inhibition of cartilage matrix degradation can be determined in vitro in the bovine nasal cartilage-synovium co-culture model of cartilage matrix degradation which is carried out as follows:
The proteoglycan matrix of bovine nasal septum cartilage is labeled in vitro by incorporation of ^35 S into glycosaminoglycan. Cartilage slices are incubated overnight in a sulfate free medium containing ^35 S-sodium sulfate. ^35 S-Labeled cartilage slices are co-cultured with normal synovium explants in multiwell tissue culture plates. After 4 days incubation a 100μl aliquot of medium is counted. Cartilage slices are hydrolyzed and a 100μl aliquot of cartilage hydrolysate is counted. The percent ^35 S released into the medium is determined and the percent inhibition of matrix degradation is calculated.

[4] = tested on: accumulation of neutrophils; assay: accumulation of neutrophils into carrageenin-impregnated polyurethane sponges in the rat; assay type: in vivo; conditions: 25 mg/Kg p.o.
Text: The inhibition of the chemotactic activation of neutrophils can also be determined in vivo by measuring the inhibition of the accumulation of neutrophils into carrageenin impregnated polyurethane sponges after oral administration in the rat.

carrageenin pleurisy = assay: carrageenin-induced pleurisy model of inflammation in the rat; assay type: in vivo; conditions: 10 mg/Kg p.o.
Description: Antiinflammatory activity is determined by measuring the inhibition of the edema and of the mononuclear cell influx after oral administration in the rat model in which pleurisy is first induced by injecting carrageenin into the pleural cavity, e.g. according to A. P. Almeida et al., J. Pharmacol. Exp. Therap. 214, 74 (1980).

human neutrophils = assay: inhibition of binding of f-MLP to human neutrophils in vitro; conditions: at a concentration of about 1×10^-6 M; sodium salt
Description: The inhibition of the chemotactic activation of neutrophils is determined in vitro, e.g. by measuring the inhibition of the binding of f-MLP (formyl-methionylleucyl-phenylalanine) to human neutrophils in vitro as follows:
Human neutrophils are isolated by a modification of the procedure of Ferrante and Thong (J. Immunol. Methods 24:389, 1978). Red cells remaining in the neutrophil preparation are lysed by separate treatments with 0.83% NH4 Cl and 0.1M tris-HCl, pH 7.5. Neutrophils are incubated in Hanks' buffer at 0° C. for 60 minutes with 15 nM ^3 H-f-MLP and test compound. Aliquots of the incubates are filtered and total ^3 H-f-MLP bound is measured. Non-specific binding in the presence of excess non-radioactive f-MLP is substracted, and percent inhibition of binding by the test drug is calculated. Final concentrations of solvents such as dimethylacetamide or ethanol which may be used to dissolve the test compound cannot exceed 1% in the incubation mixture.

SMILES: O=C(Nc1ccc(Cl)cc1)C1=C(O)CS(=O)(=O)N(Cc2ccc(Cl)cc2)c2ccccc21.[Na] [Example 2, N-(4-chlorophenyl)-1-(4-chlorophenylmethyl)-1,3-dihydro-4-hydroxy-2,1-benzothiazepine-5-carboxamide-2,2-dioxide sodium salt]
- inhibition of 5-HETE formation in whole rat blood [1]: effectively inhibits
- inhibition of leukotriene formation in whole rat blood [1]: effectively inhibits
- inhibition of release of proteoglycan in catabolin-induced degradation of cartilage (bovine nasal cartilage [2]): inhibits
- inhibition of release of proteoglycan in synovium-induced degradation of cartilage (bovine nasal cartilage [3]): inhibits
- accumulation of neutrophils into carrageenin-impregnated sponges [4]: effectively diminishes
- inhibition of edema formation in the pleurisy model of inflammation (carrageenin pleurisy): significantly inhibits
- inhibition of mononuclear cell influx in the pleurisy model of inflammation (carrageenin pleurisy): significantly inhibits
- inhibition of the binding of f-MLP to human neutrophils (human neutrophils): effective in inhibiting
